In patent US20240317780A1, “RADIOPHARMACEUTICAL SOMATOSTATIN RECEPTOR LIGANDS AND PRECURSORS THEREOF” (Technische Universität München, priority 2021, published 2024):
Where a SMILES comes first, the peptide text is derived from it. Bridges are numbered along the chain shown (N, C = ends). [ ]: non-standard residue; d: D form. The star is where a group is joined. ξ: configuration not given here. X1 = CC(C)(C)[Si](F)(c1ccc(C[N+](C)(C)CC(=O)*)cc1)C(C)(C)C; DO3AM = NC(=O)CN1CCN(CC(N)=O)CCN(CC(=O)*)CCN(CC(N)=O)CC1; ξW = NC(Cc1c[nH]c2ccccc12)C(=O)O; dOrn = NCCC[C@@H](N)C(=O)O; ξF = NC(Cc1ccccc1)C(=O)O; ξT = CC(O)C(N)C(=O)O; ξDap = NCC(N)C(=O)O; ξC = NC(CS)C(=O)O

The molecules below were run against T1, SST2 (Homo sapiens, UniProt P30874) (assay: Determination of IC50: competitive binding against [125I]TOC on SST2-transfected CHO cells). Conditions: [125I]TOC reference radioligand, 60 min room temperature.
T1 construct: expressed in transfected cells; host or cells: CHO (Chinese hamster ovary) cells
T1 sequence (P30874 whole entry, species assumed): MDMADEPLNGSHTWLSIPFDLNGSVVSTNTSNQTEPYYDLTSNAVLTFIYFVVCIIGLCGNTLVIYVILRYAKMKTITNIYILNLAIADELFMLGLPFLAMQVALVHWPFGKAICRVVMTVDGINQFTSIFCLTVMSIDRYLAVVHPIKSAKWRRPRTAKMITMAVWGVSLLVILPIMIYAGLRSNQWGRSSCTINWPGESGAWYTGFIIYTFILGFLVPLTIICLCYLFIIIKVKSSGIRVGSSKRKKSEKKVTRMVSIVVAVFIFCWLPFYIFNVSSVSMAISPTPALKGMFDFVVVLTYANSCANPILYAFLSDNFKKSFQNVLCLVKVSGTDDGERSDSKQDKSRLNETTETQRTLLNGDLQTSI
Procedure: The SST2-transfected CHO cells were cultivated in Dulbecco's Modified Eagle Medium/Nutrient Mixture F-12 (DMEM/F-12) with Glutamax-I (1:1) (Gibco), supplemented with 10% fetal calf serum (FCS) and maintained at 37° C. in a humidified 5% CO2 atmosphere. […] After removal of the culture medium, the cells were treated once with 300 μL of HBSS-B (Hank's balanced salt solution, Biochrom, Berlin, Germany, with addition of 1% bovine serum albumin (BSA)) and left with 200 μL HBSS-B. Next, 25 μL per well of solutions, containing either HBSS-B (control) or the respective ligand in increasing concentration (10^−10-10^−4 M in HBSS-B, were added with subsequent addition of 25 μL of
[^125I]TOC ([^125I]Tyr^3-Octreotide) (1.0 nM) in HBSS-B. Each concentration is investigated in triplicate. After 60 min incubation at room temperature, the experiment was terminated by removal of the assay medium and consecutive rinsing with 300 μL of cold PBS. The media of both steps were combined in one fraction and represent the amount of unbound radioligand.
Afterwards, the cells were lysed with 300 μL of 1 M NaOH and united with the 300 μL 1 M NaOH of the following wash step. Quantification of bound and unbound radioligand was accomplished in a γ-counter.

Compared with C[C@@H](O)[C@H](NC(=O)C1CSSCC(NC(=O)C(Cc2ccccc2)NC(=O)CNC(=O)CNC(=O)[C@@H](CC(=O)O)NC(=O)C(CC(=O)O)NC(=O)[C@@H](CNC(=O)CN2CCN(CC(=O)O)CCN(CC(=O)O)CCN(CC(=O)O)CC2)NC(=O)C[N+](C)(C)Cc2ccc([Si](F)(C(C)(C)C)C(C)(C)C)cc2)C(=O)N[C@@H](Cc2ccc(O)cc2)C(=O)NC(Cc2c[nH]c3ccccc23)C(=O)N[C@@H](CCCCN)C(=O)N[C@@H]([C@@H](C)O)C(=O)N1)C(=O)O (stereo partly drawn) (natLu complex, metal not drawn) [[Lu]24], C[C@@H](O)[C@H](NC(=O)C1CSSCC(NC(=O)C(Cc2ccccc2)NC(=O)CNC(=O)CNC(=O)CNC(=O)C(CC(=O)O)NC(=O)[C@@H](CC(=O)O)NC(=O)C(CNC(=O)CN2CCN(CC(=O)O)CCN(CC(=O)O)CCN(CC(=O)O)CC2)NC(=O)[C@@H](CN)NC(=O)C[N+](C)(C)Cc2ccc([Si](F)(C(C)(C)C)C(C)(C)C)cc2)C(=O)N[C@@H](Cc2ccc(O)cc2)C(=O)NC(Cc2c[nH]c3ccccc23)C(=O)N[C@@H](CCCCN)C(=O)N[C@@H]([C@@H](C)O)C(=O)N1)C(=O)O (stereo partly drawn) (natGa complex, metal not drawn) [[Ga]51] is 1.5-fold lower in IC50: 5.5 ± 0.76 nM for the first, 3.56 ± 0.25 nM for the second. The second is the more potent here.

C[C@@H](O)[C@H](NC(=O)C1CSSCC(NC(=O)C(Cc2ccccc2)NC(=O)[C@@H](CC(N)=O)NC(=O)C(CC(N)=O)NC(=O)CNC(=O)C(CC(=O)O)NC(=O)[C@@H](CC(=O)O)NC(=O)C(CNC(=O)CN2CCN(CC(=O)O)CCN(CC(=O)O)CCN(CC(=O)O)CC2)NC(=O)C[N+](C)(C)Cc2ccc([Si](F)(C(C)(C)C)C(C)(C)C)cc2)C(=O)N[C@@H](Cc2ccc(O)cc2)C(=O)NC(Cc2c[nH]c3ccccc23)C(=O)N[C@@H](CCCCN)C(=O)N[C@@H]([C@@H](C)O)C(=O)N1)C(=O)O (stereo partly drawn) (natLu complex, metal not drawn) [[Lu]49] and C[C@@H](O)[C@H](NC(=O)C1CSSCC(NC(=O)C(Cc2ccccc2)NC(=O)CNC(=O)CNC(=O)CNC(=O)C(CC(=O)O)NC(=O)[C@@H](CC(=O)O)NC(=O)C(CCC(=O)O)NC(=O)[C@@H](CNC(=O)C[N+](C)(C)Cc2ccc([Si](F)(C(C)(C)C)C(C)(C)C)cc2)NC(=O)CN2CCN(CC(=O)O)CCN(CC(=O)O)CCN(CC(=O)O)CC2)C(=O)N[C@@H](Cc2ccc(O)cc2)C(=O)NC(Cc2c[nH]c3ccccc23)C(=O)N[C@@H](CCCCN)C(=O)N[C@@H]([C@@H](C)O)C(=O)N1)C(=O)O (stereo partly drawn) (natLu complex, metal not drawn) [[Lu]47] are within error of each other in IC50: 4.47 ± 0.95 nM for the first, 5.13 ± 0.51 nM for the second.

Going from C[C@@H](O)[C@H](NC(=O)C1CSSCC(NC(=O)C(Cc2ccccc2)NC(=O)CNC(=O)CNC(=O)CNC(=O)C(CC(=O)O)NC(=O)[C@@H](CC(=O)O)NC(=O)C(CNC(=O)CN2CCN(CC(=O)O)CCN(CC(=O)O)CCN(CC(=O)O)CC2)NC(=O)[C@@H](CN)NC(=O)CNC(=O)CNC(=O)C[N+](C)(C)Cc2ccc([Si](F)(C(C)(C)C)C(C)(C)C)cc2)C(=O)N[C@@H](Cc2ccc(O)cc2)C(=O)NC(Cc2c[nH]c3ccccc23)C(=O)N[C@@H](CCCCN)C(=O)N[C@@H]([C@@H](C)O)C(=O)N1)C(=O)O (stereo partly drawn) (natGa complex, metal not drawn) [[Ga]53] to CC(O)C(NC(=O)C1CSSCC(NC(=O)C(Cc2ccccc2)NC(=O)CNC(=O)CNC(=O)CNC(=O)[C@@H](CCCN)NC(=O)[C@@H](CCCN)NC(=O)C(CNC(=O)CN2CCN(CC(N)=O)CCN(CC(N)=O)CCN(CC(N)=O)CC2)NC(=O)C[N+](C)(C)Cc2ccc([Si](F)(C(C)(C)C)C(C)(C)C)cc2)C(=O)N[C@@H](Cc2ccc(O)cc2)C(=O)NC(Cc2c[nH]c3ccccc23)C(=O)N[C@@H](CCCCN)C(=O)N[C@@H]([C@@H](C)O)C(=O)N1)C(=O)O (stereo partly drawn) [[Pb]61] (X1-[ξDap](DO3AM)[dOrn][dOrn]GGG[ξF][ξC]Y[ξW]KT[ξC][ξT]-OH; disulfide 8-13), the IC50 rises from 3.4 ± 0.18 nM to 7.96 ± 0.28 nM (2.3-fold). The first is the more potent here.
